Consider 2 molecules from patent US8313766B2, “Oral antidepressant formulation with reduced excipient load” (priority 2010, dated 2012).

Converted amounts (≈) assume the structure as drawn.

Data set [1] can be described thus: CX-157 solubility in candidate solvents, test tube method. Type of data set: physicochemical. Conditions: organic solvent or mixture, thermodynamic from solid, CX-157 Form A. Here is the method: Ethanol, acetone and methylene chloride were selected and tested as candidate solvents. CX-157 solubility in the solvent was performed using a test tube method. A specific amount of CX-157 (Form A: disclosed in U.S. Pat. Pub. No. 2008/0009542 herein incorporated by reference in it entirety) was added into 1 mL test solvent and the sample was agitated vigorously by a Beadbeater (BB). If CX-157 was completely soluble in 1 mL of test solvent, additional CX-157 was added until excess solid was present. The solubility (mg/mL) of CX-157 was calculated by the amount (mass) of CX-157 added to the test solvent (1 mL). Acetone had the highest solubility of the solvents tested with a solubility of from about 60 mg/mL to about 80 mg/mL at room temperature.

Data set [2] is described as follows: Solubility of CX-157 in water (descriptive statement). In kind it is physicochemical.
The conditions of data set [3]: human plasma, oral dose of 200 mg in a capsule with food; cited from earlier work.

Regarding `O=S1(=O)c2ccc(F)cc2Oc2cc(OCC(F)(F)F)ccc21` [CX-157, 3-fluoro-7-(2,2,2-trifluoroethoxy)phenoxathiin 10,10-dioxide], the solubility in data set [1] (solvent acetone, at room temperature) was 60 to 80 mg/mL (≈ 172 to 230 mM); in data set [1] (solvent ethanol, at 60° C.) it was under 10 mg/mL; in data set [1] (solvent methylene chloride, at room temperature), under 20 mg/mL. Also, in data set [2], the solubility in water result is “only sparing solubility”.
With `NCCc1ccc(O)cc1` [tyramine], in data set [3], the Tmax is at most 1.25 h and the “time after dosing at which non-detectable levels observed” value was 3 to 4 h.

As a reminder, the solubility is the concentration that dissolves in the medium under given conditions. In general, Tmax refers to the time from dosing to the highest level.
